Assay results as given in PMC4526890, “Crystal structures of Mycobacterium tuberculosis GlgE and complexes with non-covalent inhibitors” (Scientific Reports, 2015).

Molecular target: T1, Mtb GlgE (Mycobacterium tuberculosis, UniProt P9WQ17)
T1 construct: full-length wild type, N-terminal His tag (modified pET-28), E. coli T7 Rosetta; homodimer, intermolecular C29 disulfide in crystal
Experiment: X-ray crystal structure, […] Å, crystal soak
Assay type: binding
Settings: 10 mM ligand, 1 h soak of maltose co-crystal; acceptor glucan site about 26 Å from M1P site; ternary complex with maltose

T1 sequence (P9WQ17 1-700): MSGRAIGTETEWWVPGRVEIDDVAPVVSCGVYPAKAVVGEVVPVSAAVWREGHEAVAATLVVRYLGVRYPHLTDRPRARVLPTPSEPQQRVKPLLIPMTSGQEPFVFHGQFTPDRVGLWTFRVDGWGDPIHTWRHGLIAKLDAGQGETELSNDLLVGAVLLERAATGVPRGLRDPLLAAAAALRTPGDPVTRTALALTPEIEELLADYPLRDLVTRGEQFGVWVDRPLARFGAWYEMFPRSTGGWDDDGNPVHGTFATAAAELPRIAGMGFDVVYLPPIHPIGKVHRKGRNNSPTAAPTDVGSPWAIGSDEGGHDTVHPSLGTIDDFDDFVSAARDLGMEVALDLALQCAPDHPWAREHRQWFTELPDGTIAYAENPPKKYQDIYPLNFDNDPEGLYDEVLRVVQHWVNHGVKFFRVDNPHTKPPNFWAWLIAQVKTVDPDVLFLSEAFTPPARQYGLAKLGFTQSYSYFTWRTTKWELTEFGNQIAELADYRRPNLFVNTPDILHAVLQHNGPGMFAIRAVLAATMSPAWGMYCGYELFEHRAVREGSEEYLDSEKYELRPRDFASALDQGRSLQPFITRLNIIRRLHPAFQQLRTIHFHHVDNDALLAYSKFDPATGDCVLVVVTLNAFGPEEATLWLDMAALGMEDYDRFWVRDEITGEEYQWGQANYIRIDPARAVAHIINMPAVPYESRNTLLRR

OC[C@H]1O[C@H](O[C@H]2[C@H](O)[C@@H](O)[C@@H](O[C@H]3[C@H](O)[C@@H](O)[C@@H](O[C@H]4[C@H](O)[C@@H](O)[C@@H](O[C@H]5[C@H](O)[C@@H](O)[C@@H](O[C@H]6[C@H](O)[C@@H](O)C(O)O[C@@H]6CO)O[C@@H]5CO)O[C@@H]4CO)O[C@@H]3CO)O[C@@H]2CO)[C@H](O)[C@@H](O)[C@@H]1O (stereo partly shown) [M6, maltohexaose]
X-ray crystal structure, 4.0 Å, crystal soak: ternary complex with Mtb GlgE bound to maltose and maltohexaose (GlgE-M6) was solved
